Laboratory results taken from PMC4452589, “An evaluation of the brain distribution of [^11C]GSK1034702, a muscarinic-1 (M1) positive allosteric modulator in the living human brain using positron emission tomography” (EJNMMI Research, 2014).
Where two headings read alike, the source gives them in different places. Blank lines part the entries; values can stand above or below the compound they belong to.

Assays:
[1] = plasma free fraction by ultrafiltration, human arterial plasma; format: in vitro ADME
Experimental: (§1) Arterial blood radioactivity was measured continuously for the first 15 min after [^11C]GSK1034702 injection, using a continuous sampling system (ABSS Allogg, Mariefred, Sweden). In addition, 12 serial discrete blood samples were obtained (at 5, 10, 15, 20, 25, 30, 40, 50, 60, 70, 80 and 90 min post injection), to determine whole blood and plasma activity. Seven samples (at 5, 10, 20, 30, 50, 70 and 90 min) were further processed by HPLC to measure the fraction of plasma activity representing unmetabolised GSK1034702. For all human studies, the non-protein-bound fraction of [^11C]GSK1034702 in arterial plasma (fP) was assessed by ultrafiltration for the blood sample taken at the beginning of the scan.

[2] = plasma concentration after single 5-mg oral dose in humans; format: in vivo; settings: human, read-out: GSK1034702 plasma concentration at start of post-dose PET scan
Experimental: Serial venous blood samples were obtained at 0, 1, 2, 3, 4 and 5.5 h after the administration of a single oral dose of 5 mg of GSK1034702, to estimate the time course of GSK1034702 plasma concentration. Plasma samples were analysed using a validated analytical method.

[3] = safety and tolerability of single 5-mg oral dose in healthy males; format: in vivo, human; settings: single oral dose of 5 mg
Experimental: An open-label PET study (GSK study number 110771) was conducted to assess the transport of [^11C]GSK1034702 across the BBB and its distribution in the living human brain. Four healthy males aged between 35 and 55 years old, with body mass index (BMI) between 19.0 and 29.0 kg/m^2, and the absence of past or present neurological, medical or psychiatric illnesses and concomitant medications were enrolled. Clinical status was assessed by history, physical examination, routine blood tests, urine toxicology and electrocardiogram. All subjects provided written informed consent. The study was approved by the Edinburgh Independent Ethics Committee for Medical Research and permission to administer radioisotopes was obtained from the Administration of Radioactive Substances Advisory Committee of the UK. Subjects were recruited by and monitored by the Hammersmith Medicines Research (HMR) clinic. All scanning procedures were performed at the GlaxoSmithKline Clinical Imaging Center, Hammersmith Hospital, London.
Each subject underwent a single study day, during which PET imaging was performed. T1-weighted structural MRI scan was performed for all subjects to provide neuroanatomical information. A tracer dose of [^11C]GSK1034702 (mass <50 μg) was administered as an IV bolus immediately before each PET scan. During the scanning day, each subject received a baseline [^11C]GSK1034702 scan, followed by a single 5-mg oral dose (p.o.) of […] and a subsequent [^11C]GSK1034702 scan approximately 4 h post-dose. Subjects returned to the clinic for a follow-up visit 7 to 14 days following the oral dose of GSK1034702.

[4] = plasma protein binding by equilibrium dialysis, mouse; format: in vitro ADME; settings: equilibrium dialysis 5 h
Experimental: (§2) The in vitro brain and plasma protein binding of GSK1034702 across a range of species was determined using equilibrium dialysis as described previously.

[5] = plasma protein binding by equilibrium dialysis, rat; format: in vitro ADME; settings: equilibrium dialysis 5 h
Experimental: as §2

[6] = plasma protein binding by equilibrium dialysis, dog; format: in vitro ADME; settings: equilibrium dialysis 5 h
Experimental: as §2

[7] = plasma protein binding by equilibrium dialysis, monkey; format: in vitro ADME; settings: equilibrium dialysis 5 h
Experimental: as §2

[8] = plasma protein binding by equilibrium dialysis, human; format: in vitro ADME; settings: equilibrium dialysis 5 h
Experimental: as §2

[9] = brain tissue binding by equilibrium dialysis, rat; format: in vitro ADME; settings: equilibrium dialysis 5 h; for Brain tissue binding: 1 μg/mL, mean ± SD, n = 6; for fraction unbound at 5 h, 1 μg/mL: brain tissue, read-out: f ND (brain-free fraction)
Experimental: as §2

[10] = brain tissue binding by equilibrium dialysis, dog; format: in vitro ADME; settings: equilibrium dialysis 5 h
Experimental: as §2

[11] = brain tissue binding by equilibrium dialysis, monkey; format: in vitro ADME; settings: equilibrium dialysis 5 h
Experimental: as §2

human recombinant m1AChR = tested on: human recombinant m1AChR; design: method as in earlier work; settings: cited from earlier work
human m2-5AChR receptors = tested on: human m2-5AChR receptors; design: method as in earlier work; settings: versus m1AChR; cited from earlier work
P-glycoprotein (PGP) = tested on: P-glycoprotein (PGP); design: method as in GlaxoSmithKline (GSK) data on file; settings: MDCK cell line expressing human MDR1; ratio printed as x:1; ref GlaxoSmithKline (GSK) data on file; cited from earlier work
[12] = design: method as in GlaxoSmithKline (GSK) data on file; settings: mouse; ref GlaxoSmithKline (GSK) data on file; cited from earlier work
[13] = design: method as in GlaxoSmithKline (GSK) data on file; settings: marmoset; ratio printed as x:1; ref GlaxoSmithKline (GSK) data on file; cited from earlier work
[14] = design: method as in PMID 22932339; settings: healthy smokers, nicotine abstinence model of cognitive dysfunction; cited from earlier work
[15] = parent fraction in arterial plasma by HPLC during PET scan; format: in vivo; settings: human, baseline and post-dose sessions, 90 min
Experimental: as §1

[16] = mean ± SD, n = 6, read-out: Plasma protein binding (converted)
[17] = read-out: f P (plasma-free fraction)
[18] = brain tissue, read-out: f ND (brain-free fraction)

f P Baseline ([1]; Average of four subjects): 0.45
f P Post-dose ([1]; Average, after 5 mg oral): 0.44
f P Baseline ([1]; Subject 1): 0.42
f P Baseline ([1]; Subject 2): 0.43
f P Post-dose ([1]; Subject 2, after 5 mg oral): 0.41
f P Baseline ([1]; Subject 3): 0.43
f P Post-dose ([1]; Subject 3, after 5 mg oral): 0.43
f P Baseline ([1]; Subject 4): 0.51
f P Post-dose ([1]; Subject 4, after 5 mg oral): 0.48
concentration at 3.2 h ([2]; Subject 2, 3.2 hours post dose): 7.9 ng/mL
concentration at 4.4 h ([2]; Subject 3, 4.4 hours post dose): 13.2 ng/mL
concentration at 3.8 h ([2]; Subject 4, 3.8 hours post dose): 10.4 ng/mL
fraction unbound at 5 h, 1 μg/mL [4, 16]: 0.518
fraction unbound at 5 h, 1 μg/mL [4, 17]: 0.52
fraction unbound at 5 h, 1 μg/mL ([5]; Rat (CD), read-out: f P (plasma-free fraction)): 0.53
fraction unbound at 5 h, 1 μg/mL ([5]; Rat (CD, Sprague Dawley), mean ± SD, n = 6, read-out: Plasma protein binding (converted)): 0.528
fraction unbound at 5 h, 1 μg/mL ([5]; Rat (LH), read-out: f P (plasma-free fraction)): 0.55
fraction unbound at 5 h, 1 μg/mL ([5]; Rat (LH, Lister hooded), mean ± SD, n = 6, read-out: Plasma protein binding (converted)): 0.545
fraction unbound at 5 h, 1 μg/mL [6, 16]: 0.555
fraction unbound at 5 h, 1 μg/mL [6, 17]: 0.56
fraction unbound at 5 h, 1 μg/mL [7, 16]: 0.583
fraction unbound at 5 h, 1 μg/mL [7, 17]: 0.58
fraction unbound at 5 h, 1 μg/mL [8, 16]: 0.442
fraction unbound at 5 h, 1 μg/mL [8, 17]: 0.44
Brain tissue binding ([9]; Rat (CD)): 87.7 (±0.5) %
Brain tissue binding ([9]; Rat (LH)): 84.9 (±1.0) %
fraction unbound at 5 h, 1 μg/mL ([9]; Rat (CD)): 0.12
fraction unbound at 5 h, 1 μg/mL ([9]; Rat (LH)): 0.15
fraction unbound at 5 h, 1 μg/mL [10, 18]: 0.18
Brain tissue binding ([10]; 1 μg/mL, mean ± SD, n = 6): 81.8 (±1.8) %
fraction unbound at 5 h, 1 μg/mL [11, 18]: 0.17
Brain tissue binding ([11]; 1 μg/mL, mean ± SD, n = 6): 83.2 (±1.1) %
SMILES: Cc1cc(F)c2[nH]c(=O)n(C3CCN(C4CCOCC4)CC3)c2c1 [GSK1034702]
serious adverse events [3]: No serious adverse events
tolerability ([3]; healthy male subjects): well tolerated
adverse events ([3]; one subject, salivary hypersecretion and dysgeusia, considered drug-related): two mild and transient adverse events
pEC50 (human recombinant m1AChR; allosteric agonist at human recombinant m1AChR): 8.1 ± 0.1
intrinsic activity (IA) (human recombinant m1AChR; human recombinant m1AChR): 0.78 ± 0.02
selectivity over human m2-5AChR receptors (human m2-5AChR receptors): 100 fold
efflux ratio (P-glycoprotein (PGP)): 2.6
brain/blood ratio [12]: 0.4
brain/blood ratio [13]: 2.0
effect on episodic memory [14]: improved episodic memory

metabolism over the time course of the PET scan (parent fraction in plasma) [15]: minimal metabolism
SMILES: [11CH3]c1cc(F)c2[nH]c(=O)n(C3CCN(C4CCOCC4)CC3)c2c1 [[^11C]GSK1034702]
